The record followed here is patent publication US5843339A, “Phosphites and their production and use” (Sumitomo Chemical Company, Limited, priority 1995, dated 1998).

Series [1] is described as follows: Heat stability test of linear low-density polyethylene: processing stability (gel build-up time on kneading). The settings on record: 0.1 parts test compound per 100 parts LLDPE + 0.1 parts hydrotalcite; pellets extruded at 250° C., kneaded under nitrogen at 240° C., 100 rpm, laboplasto mill; time to maximum torque. The procedure:
Heat stability test of linear low-density polyethylene
Using a 30 mm .phi. mono axial extruder, the above formulation was extruded into pellets at 250° C. The resultant pellets were kneaded under a nitrogen atmosphere at 240° C., 100 rpm, using a laboplasto mill, and the time required for a torque value due to crosslinking to reach a maximum value (gel build-up time, minute) was measured. The results are shown in Table 1 as "processing stability".
The longer the gel build-up time, the more crosslinking on kneading is inhibited and the better the processing stability becomes.

Series [2] can be described thus: Hydrolysis resistance: same gel build-up test with test compound stored in a thermo-hygrostat. It counts as physicochemical. The settings on record: test compound allowed to stand in thermo-hygrostat (40° C., 80%) for 7 days, then same test as processing stability. The procedure:
Using a test compound which was allowed to stand in a thermo-hygrostat (40° C., 80%) for 7 days, the same test was conducted and the hydrolytic stability of the compound was evaluated. The results are shown in Table 1 as "hydrolysis resistance".
The processing stability of the hydrolyzed compound is deteriorated. Therefore, the better the processing stability after treatment, the better the hydrolysis resistance becomes.

Series [3] in a line: Dispersion properties: visual transparency of press-molded sheet. It counts as physicochemical. More on the design: key: .circleincircle.: Good; .largecircle.: Slightly good; Δ: Slightly opaque; X: Opaque. The settings on record: pellets press-molded at 250° C., sheet of 1 mm thickness. The procedure:
The resultant pellets were press-molded at 250° C. to obtain a sheet having a thickness of 1 mm, and transparency of this sheet was visually evaluated. The results are shown in Table 1 as "dispersion properties".
The better the transparency, the better the dispersion properties in the polymer become.
In Table 1, dispersion properties are indicated according to the following criteria.

In the case of `CC(C)(C)c1ccc(OP(Oc2ccc(C(C)(C)C)cc2C(C)(C)C)Oc2ccc(C(C)(C)C)cc2C(C)(C)C)c(C(C)(C)C)c1` [Compound P-2, tris(2,4-di-t-butylphenyl)phosphite], the “Processing stability (gel build-up time)” value in series [1] came out at 7 min. The “Hydrolysis resistance (gel build-up time after treatment of the test compound)” value (“Hydrolysis resistance” for short) in series [2] worked out at 4 min. In addition, in series [3], the “Dispersion properties (transparency of sheet, visually evaluated)” value (“Dispersion properties” below) was “X”.

`Cc1cc2c(c(C(C)(C)C)c1)OP(OCCOC(=O)CCc1cc(C)c(O)c(C(C)(C)C)c1)Oc1c(cc(C)cc1C(C)(C)C)C2` [Compound P-3, 2-[3-(3-t-butyl-4-hydroxy-5-methyphenyl)propionyloxy]ethyl 2,2'-methylenebis(6-t-butyl-4-methylphenyl)phosphite]: the “Processing stability (gel build-up time)” value in series [1] is 16 min. Also, in series [2], the “Hydrolysis resistance” value worked out at 16 min. Besides, the “Dispersion properties” value in series [3] is “.largecircle”.

Turning to `Cc1cc(CCC(=O)OCCOp2oc3c(C(C)(C)C)cc(C(C)(C)C)cc3c3cc(C(C)(C)C)cc(C(C)(C)C)c3o2)cc(C(C)(C)C)c1O` [KA-1, 3-(3-t-butyl-4-hydroxy-5-methylphenyl)propionic acid 2-[(2,4,8,10-tetra-t-butyldibenzo[d,f][1,3,2]dioxaphosphepin-6-yl)oxy]ethyl], the “Processing stability (gel build-up time)” value in series [1] worked out at 21 min. The “Hydrolysis resistance” value in series [2] was found to be 21 min. The “Dispersion properties” value in series [3] is recorded as “.circleincircle”.

With `CC(C)(C)c1ccc(OP2OCC3(CO2)COP(Oc2ccc(C(C)(C)C)cc2C(C)(C)C)OC3)c(C(C)(C)C)c1` (stereo not drawn) [Compound P-1, bis(2,4-di-t-butylphenyl)pentaerythritol diphosphite], in series [1], the “Processing stability (gel build-up time)” value stood at 7 min. The “Hydrolysis resistance” value in series [2] stood at 7 min. The “Dispersion properties” value in series [3] is listed as “X”.

With `Cc1cc(Cc2cc(C)cc(C(C)(C)C)c2OP2Oc3c(cc(C)cc3C(C)(C)C)Cc3cc(C)cc(C(C)(C)C)c3O2)c(O)c(C(C)(C)C)c1` [Compound P-4, 2-[2-(4,8-di-t-butyl-2,10-dimethyl-12H-dibenzo[d,g][1,3,2]dioxaphosphosin-6-yl)oxy-3-t-butyl-5-methylbenzyl]-6-t-butyl-4-methylphenol], the “Processing stability (gel build-up time)” value in series [1] amounted to 15 min. Moreover, the “Hydrolysis resistance” value in series [2] came to 15 min. Also, the “Dispersion properties” value in series [3] was “.largecircle”.
